{"source": "patent US10383938B2", "about": "(priority 2010, dated 2019)", "key": {"HA-specific IgG2a": {"test_system": "HA-specific IgG2a", "parameters": "species or system mice", "conditions": "mouse, in vivo, sc, 1 mg/kg"}, "[1]": {"test_system": "HA-specific IgG1 and IgG2a", "parameters": "species or system Balb/c male mice", "conditions": "mouse, in vivo"}}, "note": "Several values for one entry are separate records, joined by “and”; a condition that tells them apart may be missing. Equal values may be shown once.", "data": [{"compound": "CCCCCCCCCCCCCCCCCC(=O)NCCCCOn1c(CCCC)nc2c(N)nc3ccccc3c21", "note": "[N-(4-{[4-amino-2-butyl-1H-imidazo[4,5-c]quinolin-1-yl]oxy}butyl)octadecanamide]", "values": [{"measurement": "HA Specific IgG2a, Serum Dilution End Point", "setting": "HA-specific IgG2a", "value": "1.42E+04"}, {"measurement": "IgG1 End Point", "setting": "[1]", "value": "1.7E7 and 1.4E7 and 1.1E7"}, {"measurement": "antibody response to HA (in words)", "setting": "[1]; 0.1 mg/kg", "value": "greatly enhanced the antibody response"}]}, {"compound": "CCOCc1nc2c(N)nc3ccccc3c2n1CC(C)(C)O", "note": "[Resiquimod, resiquimod, reference compound]", "values": [{"measurement": "HA Specific IgG2a, Serum Dilution End Point", "setting": "HA-specific IgG2a", "value": "1.00E+05"}]}]}
